Experimental data as given in patent US5710130A, “Antithrombotic agents” (Eli Lilly and Company, priority 1995, dated 1998).
Where a name gives a salt, the structure may show the parent alone.

Tests used:
Type in all cases: biochemical
human plasma [1] = assay: Human plasma anticoagulation, thrombin time (TT); details: concentration required to double thrombin time, linear extrapolation
Description: (§1) Dog plasma and rat plasma is obtained from conscious mixed-breed hounds (either sex, Hazelton-LRE, Kalamazoo, Mich., U.S.A.) or from anesthetized male Sprague-Dawley rats (Harlan Sprague-Dawley, Inc., Indianapolis, Ind., U.S.A.) by venipuncture into 3.8 percent citrate. Fibrinogen is prepared from in-date ACD human blood as the fraction I-2 according to previous procedures and specifications. […] Human fibrinogen is also purchased as 98 percent pure/plasmin free from American Diagnostica, Greenwich, Conn. Coagulation reagents ACTIN, Thromboplastin, and Human plasma are from Baxter Healthcare Corp., Dade Division, Miami, Fla. Bovine thrombin from Parke-Davis ([…], Mich.) is used for coagulation assays in plasma.
(§2) Coagulation assay procedures are as previously described. […] A CoAScreener coagulation instrument (American LABor, Inc.) is used for all coagulation assay measurements. The prothrombin time (PT) is measured by adding 0.05 mL saline and 0.05 mL Thromboplastin-C reagent to 0.05 mL test plasma. The activated partial thromboplastin time (APTT) is measured by incubation of 0.05 mL test plasma with 0.05 mL Actin reagent for 120 seconds followed by 0.05 mL CaCl2 (0.02M). The thrombin time (TT) is measured by adding 0.05 mL saline and 0.05 mL thrombin (10 NIH units/mL) to 0.05 mL test plasma. The compounds of Formula I are added to human or animal plasma over a wide range of concentrations to determine prolongation effects on the APTT, PT, and TT assays. Linear extrapolations are performed to estimate the concentrations required to double the clotting time for each assay.

Human Thrombin = Human Thrombin (Homo sapiens, UniProt P00734); assay: Inhibition of thrombin amidase activity (Kass), chromogenic substrate; details: mean Kass over a range of concentrations; substrate N-benzoyl-Phe-Val-Arg-p-nitroanilide
human plasma [2] = assay: Human plasma anticoagulation, prothrombin time (PT); details: concentration required to double PT, linear extrapolation
Description: as §1, §2

human plasma [3] = assay: Human plasma anticoagulation, activated partial thromboplastin time (APTT); details: concentration required to double APTT, linear extrapolation
Description: as §1, §2

SMILES	Human Plasma Anticoagulation 2x Clotting time TT (human plasma [1])	Kass Human Thrombin (Human Thrombin)	Human Plasma Anticoagulation 2x Clotting time PT (human plasma [2])	Human Plasma Anticoagulation 2x Clotting time APTT (human plasma [3])
CCS(=O)(=O)N[C@H](CC1CCCCC1)C(=O)N1CCC[C@H]1C(=O)NCCCCN=C(N)N.Cl [Example 2, EtSO2 -D-Cha-Pro-Agm.HCl]	170 ng/mL	4.4 × 10^6 (L/mole)		
CCOC(=O)N[C@H](Cc1ccccc1)C(=O)N1CCC[C@H]1C(=O)NCCCCN=C(N)N.Cl [Example 3, EtOCO-D-Phe-Pro-Agm.HCl]	590 ng/mL	2.1 × 10^6 (L/mole)		
Cl.NCc1cccc(CNC(=O)[C@@H]2CCCN2C(=O)[C@H](N)Cc2ccccc2)c1 [Example 11, D-Phe-Pro-m-NHCH2 C6 H4 CH2 NH2.HCl]	8,800 ng/mL	0.064 × 10^6 (L/mole)		
Cl.Nc1ccc(CCNC(=O)[C@@H]2CCCN2C(=O)[C@H](N)Cc2ccccc2)cc1 [Example 14, D-Phe-Pro-p-NHCH2 CH2 C6 H4 NH2.HCl]	21,000 ng/mL	0.021 × 10^6 (L/mole)		
Cl.N=C(N)c1cccc(CNC(=O)[C@@H]2CCCN2C(=O)[C@H](N)Cc2ccccc2)c1 [Example 16, D-Phe-Pro-m-NHCH2 C6 H4 C(NH)NH2.0.75HCl]	650 ng/mL	0.97 × 10^6 (L/mole)	8,500 ng/mL	8,600 ng/mL
N=C(N)c1ccc(CNC(=O)[C@@H]2CCCN2C(=O)[C@H]2C[C@H]3CCCC[C@H]3CN2)cc1 [Example 19, D-3-Piq-Pro-p-NHCH2 C6 H4 C(NH)NH2.3HCl]	58 ng/mL	11 × 10^6 (L/mole)	540 ng/mL	300 ng/mL
CCS(=O)(=O)N[C@H](Cc1ccccc1)C(=O)N1CCC[C@H]1C(=O)NCCc1cccc(C(=N)N)c1.Cl [Example 27, EtSO2 -D-Phe-Pro-m-NHCH2 CH2 -C6 H4 C(=NH)NH2.HCl]		0.29 × 10^6 (L/mole)	27,000 ng/mL	
Cl.Cl.N=C(N)c1ccc(CCNC(=O)[C@@H]2CCCN2C(=O)[C@@H]2NCC[C@@H]3CCCC[C@@H]32)cc1 [Example 28, D-1-Piq-pro-p-NHCH2 CH2 -C6 H4 C(=NH)NH2.2HCl]		0.95 × 10^6 (L/mole)	8,300 ng/mL	8,100 ng/mL
Cl.Cl.N=C(N)c1cccc(CCNC(=O)[C@@H]2CCCN2C(=O)[C@@H]2NCC[C@@H]3CCCC[C@@H]32)c1 [Example 29, D-1-Piq-Pro-m-NHCH2 CH2 -C6 H4 C(=NH )NH2.2HCl]		0.76 × 10^6 (L/mole)	15,000 ng/mL	9,800 ng/mL
Cl.N=C(N)c1ccc(CCCNC(=O)C2CCCN2C(=O)C2NCCC3CCCCC32)cc1 (stereo not drawn) [Example 32, 1-Piq-Pro-p-NHCH2 CH2 CH2 -C6 H4 C(=NH)NH2.2HCl]	3,100 ng/mL	0.13 × 10^6 (L/mole)		
Cl.O=C(O)CNC(CC1CCCCC1)C(=O)N1CCCC1C(=O)NCCC1CCNCC1 [Example 54, HO2 CCH2 -D-Cha-Pro-4-NHCH2 CH2 -piperidine.HCl]	140 ng/mL	2.8 × 10^6 (L/mole)	2,200 ng/mL	3,300 ng/mL
N=C(N)N1CCC(CCNC(=O)[C@@H]2CCCN2C(=O)[C@@H](CC2CCCCC2)NCC(=O)O)CC1 [Example 57, HO2 CCH2 -D-Cha-Pro-4-NHCH2 CH2 -1-amidinopiperidine.HCl]	14 ng/mL	39 × 10^6 (L/mole)	340 ng/mL	360 ng/mL
Cl.O=C(O)CN[C@H](CC1CCCCC1)C(=O)N1CCC[C@H]1C(=O)NCC1=CCNCC1 [Example 58, HO2 CCH2 -D-Cha-Pro-4-NHCH2 -3,4-dehydro-piperidine.HCl]	710 ng/mL	0.60 × 10^6 (L/mole)		
Cl.O=C(O)CN[C@H](CC1CCCCC1)C(=O)N1CCC[C@H]1C(=O)NCCC1=CCNCC1 [Example 59, HO2 CCH2 -D-Cha-Pro-4-NHCH2 CH2 -3,4-dehydro-piperidine.HCl]	420 ng/mL	1.10 × 10^6 (L/mole)	7,000 ng/mL	5,500 ng/mL
Cl.O=C(O)CN[C@H](CC1CCCCC1)C(=O)N1CCC[C@H]1C(=O)NCCCC1=CCNCC1 [Example 60, HO2 CCH2 -D-Cha-Pro-4-NHCH2 CH2 CH2 -3,4-dehydro-piperidine.HCl]	3,200 ng/mL	0.24 × 10^6 (L/mole)		
N=C(N)C1CCC(CNC(=O)[C@@H]2CCCN2C(=O)[C@@H](CC2CCCCC2)NCC(=O)O)NC1 (stereo partly drawn) [Example 67, HO2 CCH2 -D-Cha-Pro-2-NHCH2 -5-amidinopiperidine.HCl]	34 ng/mL	11 × 10^6 (L/mole)	1,300 ng/mL	1,800 ng/mL
Cl.Nc1cc(CNC(=O)[C@@H]2CCCN2C(=O)[C@@H](CC2CCCCC2)NCC(=O)O)ccn1 [Example 73, HO2 CCH2 -D-Cha-Pro-4-NHCH2 -2-aminopyridine.HCl]	21 ng/mL	28 × 10^6 (L/mole)	330 ng/mL	340 ng/mL
Cl.Nc1ccc(CNC(=O)[C@@H]2CCCN2C(=O)[C@@H](CC2CCCCC2)NCC(=O)O)cn1 [Example 74, HO2 CCH2 -D-Cha-Pro-5-NHCH2 -2-aminopyridine.HCl]	20 ng/mL	29 × 10^6 (L/mole)	350 ng/mL	420 ng/mL
Cl.Nc1cc(CCNC(=O)[C@@H]2CCCN2C(=O)[C@@H](CC2CCCCC2)NCC(=O)O)ccn1 [Example 76, HO2 CCH2 -D-Cha-Pro-4-NHCH2 CH2 -2-aminopyridine.HCl]	29 ng/mL	12 × 10^6 (L/mole)	560 ng/mL	490 ng/mL
Nc1ccc(CNC(=O)[C@@H]2CCCN2C(=O)[C@@H](CC2CCCCC2)NCC(=O)O)cc1F [Example 77, HO2 CCH2 -D-Cha-pro-4-NHCH2-2-F-aniline.HCl]	53 ng/mL	11 × 10^6 (L/mole)	890 ng/mL	1,600 ng/mL
NCc1ccc(CNC(=O)[C@@H]2CCCN2C(=O)[C@@H](CC2CCCCC2)NCC(=O)O)cc1 [Example 78, HO2 CCH2 -D-Cha-Pro-4-NHCH2 C6 H4 CH2 NH2.HCl]	46 ng/mL	11 × 10^6 (L/mole)	760 ng/mL	430 ng/mL
CCS(=O)(=O)N[C@H](CC1CCCCC1)C(=O)N1CCC[C@H]1C(=O)NCc1ccc(C(=N)N)cc1 [Example 80, N-(ethylsulfonyl)-D-cyclohexylalanyl-N-[[4-(aminoiminomethyl)phenyl]methyl]-L-prolinamide hydrochloride]	4 ng/mL	1,700 × 10^6 (L/mole)	130 ng/mL	40 ng/mL
CCS(=O)(=O)N[C@H](CC1CCCCC1)C(=O)N1CCC[C@H]1C(=O)NCc1ccc(N)cc1F.Cl [Example 82, EtSO2 -D-Cha-Pro-4-NHCH2 -3-F-C6 H3 NH2.HCl]	130 ng/mL	5.0 × 10^6 (L/mole)	3,000 ng/mL	3,800 ng/mL
CCS(=O)(=O)N[C@H](CC1CCCCC1)C(=O)N1CCC[C@H]1C(=O)NCc1ccnc(N)c1.Cl [Example 83, EtSO2 -D-Cha-Pro-4-NHCH2 -2-aminopyridine.HCl]	91 ng/mL	2.4 × 10^6 (L/mole)	1,300 ng/mL	1,000 ng/mL
CCS(=O)(=O)N[C@H](CC1CCCCC1)C(=O)N1CCC[C@H]1C(=O)NCc1ccc(N)nc1.Cl [Example 84, EtSO2 -D-Cha-Pro-5-NHCH2 -2-aminopyridine.HCl]	110 ng/mL	2.9 × 10^6 (L/mole)	1,900 ng/mL	1,500 ng/mL
